The values below come from paper PMC5374710, “Discovery of the first dual GSK3β inhibitor/Nrf2 inducer. A new multitarget therapeutic strategy for Alzheimer’s disease” (Scientific Reports, 2017).

SMILES strings stand for the structures.

In one experiment the test system is Nrf2. Briefly: Luciferase activity in AREc32 cells after scramble or GSK3β siRNA. It counts as cell-based, human. The following applies: 10 μM, 24 h. As for the experimental part:
(§1) To further evaluate the potential relationship between GSK3β inhibition and the Nrf2 induction properties we used two different approaches. […] Cells were treated with compound 5m at increasing concentrations alone or in presence of Li (10 mM) during 24 h and thereafter, luciferase activity was evaluated. […] Secondly, to corroborate the independence of the Nrf2 induction properties of our derivatives from their GSK3β inhibitory properties, we used GSK3β knock down experimental conditions using siRNA. […] After knockdown of GSK3β, AREc32 cells were incubated with compound 5m (10 μM) during 24 h (Fig. 4B). Subsequently, luciferase activity and HO-1 expression were analyzed. […] Similar results were obtained when HO-1 expression was analyzed (Fig. 4D), compound 5m increased HO-1 expression 3.9 times after scramble treatment and 3.5 times after knockdown of GSK3β showing no statistical differences between both conditions. […]
(§2) Figure 4 Nrf2 induction properties are independent of the GSK3β inhibitory activity. […] (D) HO-1 expression induced by compound 5m (10 μM) measured at the same experimental conditions used previously. Values are expressed as mean ± SEM of three independent experiments in duplicate. ^###p < 0.001; ^##p < 0.01; ^#p < 0.05 compared to the correspondent basal conditions. […]

A further experiment deals with HO-1. Briefly: HO-1 expression in AREc32 cells after scramble or GSK3β siRNA (western blot). It counts as cell-based, human. The following applies: 10 μM, 24 h. As for the experimental part: as §1, §2
On the technique in general: A western blot detects proteins with antibodies after separation by electrophoresis.

With `Cc1[nH]nc2c1C(c1ccc(Br)cc1)C(C#N)=C(N)O2` (stereo not shown) [Compound 5m, 6-Amino-4-(4-bromophenyl)-3-methyl-2,4-dihydropyrano[2,3-c]pyrazole-5-carbonitrile], the “Luciferase activity fold increase compared to basal conditions” value in the experiment with Nrf2 (GSK3β silenced (siGSK3β)) is 2.8 fold; with Nrf2 (cells previously treated with scramble control siRNA), 2.2 fold. The HO-1 expression increase with HO-1 (after knockdown of GSK3β) was 3.5 times; in the experiment with HO-1 (after scramble treatment) it was 3.9 times.
